Data: publication PMC10851415 (Biochemistry, 2024)

Legend:
[1] = target: T1, I38T mutant PAN endonuclease (Influenza A virus, UniProt C3W5S0, DEL52-63/E64G/I38T); format: binding, influenza A/California/04/2009(H1N1)
[2] = target: T2, E23K mutant PAN endonuclease (Influenza A virus, UniProt C3W5S0, DEL52-63/E23K/E64G); format: binding, influenza A/California/04/2009(H1N1)
[3] = target: T3, WT PAN endonuclease (Influenza A virus, UniProt C3W5S0, DEL52-63/E64G); format: binding, influenza A/California/04/2009(H1N1)
[4] = target: T3, WT PAN endonuclease; format: binding, influenza A/California/04/2009(H1N1); conditions: 200 µM
[5] = target: T2, E23K mutant PAN endonuclease; format: binding, influenza A/California/04/2009(H1N1); remark: listed apart in the source
[6] = target: A36V mutant PAN endonuclease (Influenza A virus, UniProt C3W5S0, A36V/DEL52-63/E64G); format: binding, influenza A/California/04/2009(H1N1); conditions: 200 µM
[7] = test system: I38T mutant; conditions: cited from earlier work
[8] = target: T1, I38T mutant PAN endonuclease; format: binding, influenza A/California/04/2009(H1N1); remark: listed apart in the source
[9] = test system: WT and I38T mutants; conditions: cited from earlier work

In the case of baloxavir acid [BXA], the “difference in ΔTM compared to WT (lower)” value [1] is reported as ~ 8 °C, the ΔTM ([1]; 200 µM) is reported as 14.9 ±0.04 °C and the Kd [2] is reported as 26.1 ± 11.2 µM. The Kd [3] was 0.343 ± 0.106 µM, the ΔTM [4] was 22.9 ±0.08 °C and the “difference in ΔTM compared to WT (lower)” value [5] was < 3 °C. For the same substance, the ΔTM ([5]; 200 µM) was 19.8 ±0.06 °C, the ΔTM [6] was 21.7 ±0.11 °C and the reduction in affinity [7] was 30- to 50 fold. For the same substance, the Kd [8] was 9.3 ± 4.2 µM and the “ΔTM melting value between the WT and I38T mutants” value [9] was 8-10 °C.
